From ChEMBL document CHEMBL3407376, “Identification of novel class of falcipain-2 inhibitors as potential antimalarial agents” (Bioorg Med Chem, 2015)
Active and inactive are the calls of the source. The calls are words filed in the database; no cut-off is given here.

How the values were obtained:
Plasmodium falciparum [1] = assay: Antimalarial activity against Plasmodium falciparum isolate MCamp infected in human erythrocytes after 48 hrs by SYBR green assay; assay type: functional, organism-based
Plasmodium falciparum [2] = assay: Antimalarial activity against asexual stage Plasmodium falciparum assessed as abnormal parasites after 60 hrs relative to control; assay type: functional, organism-based
Plasmodium falciparum [3] = assay: Antimalarial activity against Plasmodium falciparum Dd2 infected in human erythrocytes after 48 hrs by SYBR green assay; assay type: functional; conditions: Dd2, 48 h
Plasmodium falciparum [4] = assay: Antimalarial activity against asexual stage Plasmodium falciparum assessed as growth arrest at trophozoite stage after 32 to 60 hrs relative to control; assay type: functional, organism-based
Plasmodium falciparum [5] = assay: Selectivity ratio of EC50 for Plasmodium falciparum Dd2 to EC50 for Plasmodium falciparum 3D7; assay type: functional
Plasmodium falciparum [6] = assay: Selectivity ratio of EC50 for Plasmodium falciparum isolate MCamp to EC50 for Plasmodium falciparum 3D7; assay type: functional
[7] = Selectivity ratio of IC50 for CHO cells to IC50 for Plasmodium falciparum; assay type: ADME, cell-based; conditions: hamster, read-out: Ratio IC50
Plasmodium falciparum [8] = assay: Antimalarial activity against Plasmodium falciparum 3D7 infected in human erythrocytes after 48 hrs by SYBR green assay; assay type: functional, organism-based
CHO = assay: Cytotoxicity against CHO cells after 24 hrs by WST-1 assay; assay type: cell-based; conditions: Cricetulus griseus
Falcipain 2 = target: T1, Falcipain 2 (Plasmodium falciparum, UniProt Q9N6S8); assay: Inhibition of Plasmodium falciparum recombinant falcipain-2 using ZFR-AMC as substrate after 30 mins by fluorometric assay
T1 sequence (Q9N6S8 whole entry): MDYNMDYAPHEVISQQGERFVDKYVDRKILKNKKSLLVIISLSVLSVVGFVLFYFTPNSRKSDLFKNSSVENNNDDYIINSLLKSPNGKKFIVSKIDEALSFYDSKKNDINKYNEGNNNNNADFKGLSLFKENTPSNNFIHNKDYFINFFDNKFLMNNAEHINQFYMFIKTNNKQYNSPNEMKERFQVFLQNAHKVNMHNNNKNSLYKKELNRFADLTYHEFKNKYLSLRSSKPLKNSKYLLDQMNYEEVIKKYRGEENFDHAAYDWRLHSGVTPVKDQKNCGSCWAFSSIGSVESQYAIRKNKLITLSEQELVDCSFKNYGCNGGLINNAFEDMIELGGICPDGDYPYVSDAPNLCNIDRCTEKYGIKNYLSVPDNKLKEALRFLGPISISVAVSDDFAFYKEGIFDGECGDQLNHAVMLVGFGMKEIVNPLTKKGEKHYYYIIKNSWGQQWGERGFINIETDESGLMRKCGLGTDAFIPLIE

Plasmodium falciparum [9] = assay: Selectivity ratio of EC50 for Plasmodium falciparum 3D7 to EC50 for Plasmodium falciparum Dd2; assay type: functional
Plasmodium falciparum [10] = assay: Antimalarial activity against asexual stage Plasmodium falciparum assessed as morphological abnormalities after 32 to 46 hrs relative to control; assay type: functional, organism-based
Plasmodium falciparum [11] = assay: Antimalarial activity against asexual stage Plasmodium falciparum assessed as abnormal food vacuole after 32 to 46 hrs relative to control; assay type: functional, organism-based
[12] = Plasmodium falciparum, 3D7, 48 h, read-out: IC50

Row | SMILES | IC50 (Plasmodium falciparum [8]; [12]) | IC50 (CHO) | Ki (Falcipain 2) | other results
1 | CC(C)C[C@H](NC(=O)[C@H](CC(C)C)NC(=O)N1CCOCC1)C(=O)N[C@H](C(=O)N1CCC[C@H]1COc1ccc(F)cc1)c1ccccc1 | 0.9 µM | 168 µM | 1.1 µM | EC50 (Plasmodium falciparum [1]): 12.1 µM; Activity (Plasmodium falciparum [2]): Active; EC50 (Plasmodium falciparum [3]): 7.5 µM; Activity (Plasmodium falciparum [4]): Active; Ratio EC50 (Plasmodium falciparum [5]): 8; Ratio EC50 (Plasmodium falciparum [6]): 8; selectivity ratio [7]: 150
2 | CC(C)C[C@H](NC(=O)[C@H](CC(C)C)NC(=O)N1CCCCC1)C(=O)N[C@H](C(=O)N1CCC[C@H]1COc1ccc(F)cc1)c1ccccc1 |  |  | 1.3 µM | IC50 (Plasmodium falciparum [8]): Not Active
3 | CC(C)C[C@H](NC(=O)c1ccco1)C(=O)N[C@@H](CC(C)C)C(=O)N[C@@H](Cc1ccccc1)C(=O)NNc1ccccc1 | 27.9 µM | 114 µM | 0.6 µM | 
4 | CC(C)C[C@H](NC(=O)CN1CCC(CCO)CC1)C(=O)N[C@@H](CC(C)C)C(=O)N[C@H](C(=O)N1CCC[C@H]1COc1ccc(F)cc1)c1ccccc1 |  |  | > 10 µM | IC50 (Plasmodium falciparum [8]): Not Active
5 | CC(C)C[C@H](NC(=O)CN1CCN(C)CC1)C(=O)N[C@@H](CC(C)C)C(=O)N[C@@H](Cc1c[nH]c2ccccc12)C(=O)N1CCN=C1COc1ccc(F)cc1 | 17.5 µM |  | 10.6 µM | 
6 | CC(C)C[C@H](NC(=O)[C@H](CC(C)C)NC(=O)N1CCOCC1)C(=O)N[C@@H](Cc1c[nH]c2ccccc12)C(=O)N1CCN=C1COc1ccc(F)cc1 | > 5 µM |  | 1.8 µM | 
7 | CC(C)C[C@H](NC(=O)CN1CCC(O)CC1)C(=O)N[C@@H](CC(C)C)C(=O)N[C@@H](Cc1c[nH]c2ccccc12)C(=O)N1CCN=C1COc1ccc(F)cc1 | 10 µM |  | 13.6 µM | 
8 | CC(C)C[C@H](NC(=O)CN1CCN(C)CC1)C(=O)N[C@@H](CC(C)C)C(=O)N[C@@H](Cc1c[nH]c2ccccc12)C(=O)N1CCC[C@H]1COc1ccc(F)cc1 |  |  | 7.49 µM | IC50 (Plasmodium falciparum [8]): Not Active
9 | CC(C)C[C@H](NC(=O)CN1CCC(CCO)CC1)C(=O)N[C@@H](CC(C)C)C(=O)N[C@@H](Cc1c[nH]c2ccccc12)C(=O)N1CCC[C@H]1COc1ccc(F)cc1 | 6.7 µM |  | 3.29 µM | 
10 | CC(C)C[C@H](NC(=O)CN1CCC(O)CC1)C(=O)N[C@@H](CC(C)C)C(=O)N[C@@H](Cc1c[nH]c2ccccc12)C(=O)N1CCC[C@H]1COc1ccc(F)cc1 | 16.7 µM |  | 2.53 µM | 
11 | COc1ccc(OC[C@@H]2CCCN2C(=O)[C@H](Cc2ccccc2)NC(=O)[C@H](CC(C)C)NC(=O)[C@H](CC(C)C)NC(=O)N2CCCCC2)cc1 | 35.7 µM | 40 µM | 0.3 µM | 
12 | CC(C)C[C@H](NC(=O)N1CCOCC1)c1nc(C(=O)N[C@@H](Cc2ccccc2)C(=O)N2CCC[C@H]2COc2ccc(F)cc2)co1 |  |  | 8.6 µM | IC50 (Plasmodium falciparum [8]): Not Active
13 | CC(C)C[C@H](NC(=O)CN1CCC(CCO)CC1)C(=O)N[C@@H](CC(C)C)C(=O)N[C@@H](Cc1c[nH]c2ccccc12)C(=O)N1CCN=C1COc1ccc(F)cc1 | 18.8 µM |  | 6.2 µM | 
14 | CC(C)C[C@H](NC(=O)[C@H](CC(C)C)NC(=O)N1CCOCC1)C(=O)N[C@@H](Cc1c[nH]c2ccccc12)C(=O)N1CCC[C@H]1COc1ccc(F)cc1 | 10 µM |  | 0.4 µM | 
15 | COC(=O)C1CCN(CC(=O)N[C@@H](CC(C)C)C(=O)N[C@@H](CC(C)C)C(=O)N[C@@H](Cc2c[nH]c3ccccc23)C(=O)N2CCC[C@H]2COc2ccc(F)cc2)CC1 | 6.7 µM | > 500 µM | 4.6 µM | 
16 | CC(C)C[C@H](NC(=O)[C@H](CC(C)C)NC(=O)N1CCOCC1)C(=O)N[C@@H](Cc1ccccc1)C(=O)N1CCC[C@H]1COc1ccc(F)cc1 | 10.2 µM | 53 µM | 0.3 µM | 
17 | CC(C)C[C@H](NC(=O)[C@H](CC(C)C)NC(=O)N1CCOCC1)C(=O)N[C@H](C(=O)N1CCN=C1COc1ccc(F)cc1)c1ccccc1 | > 5 µM |  | 7 µM | 
18 | CC(C)C[C@H](NC(=O)CN1CCN(C)CC1)C(=O)N[C@@H](CC(C)C)C(=O)N[C@H](C(=O)N1CCC[C@H]1COc1ccc(F)cc1)c1ccccc1 |  |  | > 10 µM | IC50 (Plasmodium falciparum [8]): Not Active
19 | COC(=O)C1CCN(CC(=O)N[C@@H](CC(C)C)C(=O)N[C@@H](CC(C)C)C(=O)N[C@H](C(=O)N2CCC[C@H]2COc2ccc(F)cc2)c2ccccc2)CC1 |  |  | > 100 µM | IC50 (Plasmodium falciparum [8]): Not Active
20 | CC(C)C[C@H](NC(=O)[C@H](CC(C)C)NC(=O)N1CCCCC1)C(=O)N[C@H](C(=O)N1CCN=C1COc1ccc(F)cc1)c1ccccc1 | 5.2 µM |  | 0.8 µM | EC50 (Plasmodium falciparum [1]): 1.2 µM; Activity (Plasmodium falciparum [2]): Active; EC50 (Plasmodium falciparum [3]): 1.9 µM; Activity (Plasmodium falciparum [4]): Active; Ratio EC50 (Plasmodium falciparum [9]): 3
21 | CC(C)C[C@H](NC(=O)[C@H](CC(C)C)NC(=O)N1CCCCC1)C(=O)N[C@@H](Cc1c[nH]c2ccccc12)C(=O)N1CCN=C1COc1ccc(F)cc1 | 5.5 µM | > 468 µM | 0.2 µM | EC50 (Plasmodium falciparum [1]): 6.6 µM; Activity (Plasmodium falciparum [2]): Active; EC50 (Plasmodium falciparum [3]): 1.7 µM; Activity (Plasmodium falciparum [4]): Active; Ratio EC50 (Plasmodium falciparum [9]): 3; Activity (Plasmodium falciparum [10]): Active; Activity (Plasmodium falciparum [11]): Active
22 | CC(C)C[C@H](NC(=O)[C@H](CC(C)C)NC(=O)N1CCCCC1)C(=O)N[C@@H](Cc1c[nH]c2ccccc12)C(=O)N1CCC[C@H]1COc1ccc(F)cc1 | 9.7 µM |  | 0.4 µM | 
23 | CC(C)C[C@H](NC(=O)[C@H](CC(C)C)NC(=O)N1CCCCC1)C(=O)N[C@@H](Cc1ccccc1)C(=O)NNc1ccccc1 | 14.2 µM | 99 µM | 0.8 µM | 
